Key:
[1] = molecular target: rat intestinal α-glucosidase; assay: Mammalian α-glucosidase inhibition assay (rat intestinal acetone powder, pNPG substrate); assay type: biochemical; settings: for IC50: rat intestinal α-glucosidase, pNPG, pH 6.9, 37 °C, na: no activity; for inhibition of rat intestinal α-glucosidase (in words): qualitative statement
Procedure: (§1) In this study the inhibition study of both yeast and mammalian α-glucosidase were measured through the earlier reported bioassay method with minor changes ([4]). This test was carried out using the substrate p-nitrophenyl-α-D-glucopyranoside (pNPG), which is hydrolyzed by α-glucosidase to release the product p-nitrophenol, a color agent that can be monitored at 405 nm. For yeast α-glucosidase, mixture contained 20 µL of the enzyme (0.5 unit/mL), 120 µL of 0.1 M phosphate buffer (pH 6.9) and 10 µL of test sample at various concentrations. The mixed solution was incubated in 96-well plates at 37 °C for 15 min. After preincubation the enzymatic reaction was initiated by adding 20 µL of 5 mM pNPG solution in 0.1 M phosphate buffer (pH 6.9) and the reaction mixture was incubated for another 15 min at 37 °C. The reaction was terminated by adding 80 µL of 0.2 M sodium carbonate solution and then absorbance reading was recorded at 405 nm by microplate reader. The reaction system without tested samples was used as control and the system without α-glucosidase was used as blank for correcting the background absorbance. The inhibitory rate of sample on α-glucosidase was calculated by the following formula:
(§2) % Inhibition=control absorbance-sample absorbance/control absorbance×100
The mammalian α-glucosidase were prepared from rat intestinal acetone powder (1 g), which was extracted by 25 mL of 0.1 M phosphate buffer (pH 6.9) containing 5 mM EDTA at ambient temperature. After sonication (10 min) and centrifugation (10000×g, 20 min) the obtained supernatant was dialyzed against […] phosphate buffer (pH 6.9) for 24 h. The final supernatant was used for the assay. The mammalian α-glucosidase inhibition test was carried out in the same manner as that of the yeast α-glucosidase.

yeast α-glucosidase = yeast α-glucosidase (Saccharomyces cerevisiae, UniProt P53341); assay: Yeast α-glucosidase inhibition assay (pNPG substrate, absorbance at 405 nm); assay type: biochemical; settings: qualitative statement
Sequence of yeast α-glucosidase (P53341 whole entry): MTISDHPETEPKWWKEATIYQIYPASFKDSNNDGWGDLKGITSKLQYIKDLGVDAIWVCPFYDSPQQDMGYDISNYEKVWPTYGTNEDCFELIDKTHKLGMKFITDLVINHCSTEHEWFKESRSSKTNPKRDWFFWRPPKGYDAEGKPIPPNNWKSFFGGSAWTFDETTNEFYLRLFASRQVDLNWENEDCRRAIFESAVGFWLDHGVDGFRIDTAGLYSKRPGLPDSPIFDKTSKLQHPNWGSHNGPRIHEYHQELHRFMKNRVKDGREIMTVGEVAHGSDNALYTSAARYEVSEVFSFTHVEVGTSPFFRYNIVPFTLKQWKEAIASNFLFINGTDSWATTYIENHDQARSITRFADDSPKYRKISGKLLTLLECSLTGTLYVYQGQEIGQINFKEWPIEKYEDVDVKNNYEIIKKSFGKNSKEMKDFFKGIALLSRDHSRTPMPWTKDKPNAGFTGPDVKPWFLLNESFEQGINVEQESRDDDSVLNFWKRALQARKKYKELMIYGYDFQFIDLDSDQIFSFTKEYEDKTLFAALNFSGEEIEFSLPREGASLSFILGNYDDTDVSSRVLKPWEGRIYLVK
Procedure: as §1, §2

Row | IC50 [1] | SMILES | inhibition of yeast α-glucosidase (in words) (yeast α-glucosidase) | inhibition of rat intestinal α-glucosidase (in words) [1]
1 | 37.5 ± 1.4 µM | C[C@H]1O[C@H](O[C@H]2[C@H](O)[C@@H](O)[C@@H](O[C@H]3[C@H](O)[C@@H](O)C(O)O[C@@H]3CO)O[C@@H]2CO)[C@H](O)[C@@H](O)[C@@H]1N[C@H]1C=C(CO)[C@@H](O)[C@H](O)[C@H]1O (stereo partly shown) [Acarbose, reference compound] | – | –
2 | 36.7 ± 2.9 µM | O=C1c2ccccc2C(=O)N1C(Cc1ccc(O)cc1)c1nc2ccccc2[nH]1 (stereo not shown) [4d, 2-(1-(1H-benzo(d)imidazol-2-yl)-2-(4-hydroxyphenyl)ethyl)isoindoline-1,3-dione] | significantly higher inhibitory action than acarbose | significantly higher inhibitory action than acarbose
3 | – | O=C1c2ccccc2C(=O)N1CC1=Nc2cccc3cccc(c23)N1 [5a, 2-((1H-perimidin-2-yl)methyl)isoindoline-1,3-dione] | did not exert good inhibition activity | did not exert good inhibition activity
4 | – | CC(C)CC(C1=Nc2cccc3cccc(c23)N1)N1C(=O)c2ccccc2C1=O (stereo not shown) [5e, 2-(3-methyl-1-(1H-perimidin-2-yl)butyl)isoindoline-1,3-dione] | did not exert good inhibition activity | did not exert good inhibition activity
5 | 35.9 ± 2.3 µM | O=C1c2ccccc2C(=O)N1C(Cc1ccccc1)C1=Nc2cccc3cccc(c23)N1 (stereo not shown) [5c, 2-(1-(1H-perimidin-2-yl)-2-phenylethyl)isoindoline-1,3-dione] | significantly higher inhibitory action than acarbose | significantly higher inhibitory action than acarbose
6 | – | CCC(C)C(C1=Nc2cccc3cccc(c23)N1)N1C(=O)c2ccccc2C1=O (stereo not shown) [5b, 2-(2-methyl-1-(1H-perimidin-2-yl)butyl)isoindoline-1,3-dione] | did not exert good inhibition activity | did not exert good inhibition activity
7 | 48.5 ± 2.3 µM | O=C1c2ccccc2C(=O)N1C(Cc1ccccc1)c1nc2ccccc2[nH]1 (stereo not shown) [4c, 2-(1-(1H-benzo(d)imidazol-2-yl)-2-phenylethyl)isoindoline-1,3-dione] | significantly higher inhibitory action than acarbose | significantly higher inhibitory action than acarbose
8 | 21.8 ± 1.7 µM | O=C1c2ccccc2C(=O)N1C(Cc1ccc(O)cc1)C1=Nc2cccc3cccc(c23)N1 (stereo not shown) [5d, 2-(2-(4-hydroxyphenyl)-1-(1H-perimidin-2-yl)ethyl)isoindoline-1,3-dione] | significantly higher inhibitory action than acarbose | significantly higher inhibitory action than acarbose
